We go through nine molecules from ChEMBL document CHEMBL1201862, “PubChem BioAssay data set” (2004).

Test systems include SR; NCI/ADR-RES; SN12C; OVCAR-4; HOP-62; SK-MEL-5; Malme-3M; M14; KM12; UO-31; HT-29; SW-620; RXF 393; CCRF-CEM; NCI-H23; MOLT-4; A498; HL-60; HCC 2998; K562.
Holding throughout (assay): NCI anticancer screen, dose series, 48 h

The structures appear in SMILES notation.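 These data come from cells grown in 96-well plates and exposed to compound for 48 hours at five concentrations. GI50: concentration for 50% inhibition of growth.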 The source made the active and inactive calls. Rule as the data show it: active = GI50 up to about 1.1 µM and inactive = higher.

Turning to `Nc1nc(Cl)nc2c1ncn2C1CCC(CO)O1` (centres undefined), the GI50 in the experiment on SR was > 100 µM (inactive); with NCI/ADR-RES, 90.6 µM (inactive); in the experiment on SN12C, 95.7 µM (inactive); in the experiment with OVCAR-4, > 100 µM (inactive); in the experiment with HOP-62, > 100 µM (inactive); in the experiment on SK-MEL-5, > 100 µM (inactive). Moreover, the GI50 with Malme-3M, in the experiment on M14, in the experiment on KM12, in the experiment on UO-31, in the experiment with HT-29 and in the experiment with SW-620 was > 100 µM (inactive) each time. For the same molecule, the GI50 is > 100 µM (inactive) in the experiment on RXF 393; 3.46 µM (inactive) with CCRF-CEM; 87.9 µM (inactive) with NCI-H23; 35.2 µM (inactive) in the experiment with MOLT-4; > 100 µM (inactive) in the experiment on A498.
Take `CN(C)CCCNC(=O)N/N=C/c1ccccn1`: the GI50 in the experiment with SR, in the experiment on NCI/ADR-RES, in the experiment on SN12C, in the experiment with OVCAR-4, in the experiment on HOP-62 and in the experiment on HL-60 was > 10 µM (inactive) each time. Further, the GI50 in the experiment on SK-MEL-5, with Malme-3M, in the experiment with M14, with KM12, in the experiment with UO-31 and in the experiment on HCC 2998 was > 10 µM (inactive) in each case. In addition, the GI50 in the experiment on HT-29, in the experiment on K562, with SW-620, in the experiment with RXF 393, in the experiment on CCRF-CEM and with MOLT-4 was > 10 µM (inactive) in each case. The GI50 with A498 was > 10 µM (inactive).
Turning to `CC(C)C[C@@H](NC(=O)[C@@H](Cc1cccc2ccccc12)NC(=O)N1CCOCC1)B(O)O`, the GI50 in the experiment with SR is 27 µM (inactive); in the experiment with NCI/ADR-RES it was > 100 µM (inactive); in the experiment with SN12C it was 96.2 µM (inactive); in the experiment with OVCAR-4, > 100 µM (inactive); with HOP-62, > 100 µM (inactive); with HL-60, 38.7 µM (inactive). The GI50 with M14 was 28.2 µM (inactive); in the experiment on KM12 it was > 100 µM (inactive); in the experiment on UO-31, > 100 µM (inactive); in the experiment with HCC 2998, > 100 µM (inactive); with HT-29 it was 59.4 µM (inactive); with K562, 57.9 µM (inactive). The GI50 in the experiment on NCI-H23 was 51.2 µM (inactive); with MOLT-4 it was 31.5 µM (inactive); in the experiment on A498 it was 31 µM (inactive).
As for `CCCCC(=O)c1c(O)nc2sccn2c1=O`, the GI50 in the experiment on SR, in the experiment on NCI/ADR-RES, with SN12C, in the experiment on OVCAR-4, with HOP-62 and in the experiment on HL-60 was > 10 µM (inactive) each time. In addition, the GI50 in the experiment with SK-MEL-5, with Malme-3M, in the experiment on M14, with KM12, with UO-31 and in the experiment on HCC 2998 was > 10 µM (inactive) in each case. In addition, the GI50 with HT-29, with SW-620, in the experiment on RXF 393, in the experiment with CCRF-CEM, in the experiment on NCI-H23 and with MOLT-4 was > 10 µM (inactive) in each case. Further, the GI50 in the experiment with A498 was > 10 µM (inactive).
Regarding `[O-][n+]1c2c([n+]([O-])c3ccccc31)-c1cccc3cccc-2c13`, the GI50 in the experiment on SR, with NCI/ADR-RES, in the experiment with SN12C, with OVCAR-4, in the experiment on HL-60 and in the experiment on SK-MEL-5 was > 100 µM (inactive) throughout. Further, the GI50 was 48.1 µM (inactive) with M14; > 100 µM (inactive) in the experiment on KM12; 43 µM (inactive) with UO-31; > 100 µM (inactive) in the experiment with HCC 2998; > 100 µM (inactive) in the experiment on HT-29; > 100 µM (inactive) in the experiment with K562. Further, the GI50 in the experiment with SW-620 is > 100 µM (inactive); with RXF 393, 21.2 µM (inactive); in the experiment with CCRF-CEM it was > 100 µM (inactive); in the experiment on NCI-H23 it was 47.3 µM (inactive); in the experiment on MOLT-4 it was > 100 µM (inactive); in the experiment with A498, > 100 µM (inactive).
As for `O=C1C(=Cc2cccc(O)c2)N=C(c2ccccc2)N1n1c(-c2ccccc2)nc2ccccc2c1=O`, the GI50 in the experiment on SR is 16.4 µM (inactive); in the experiment with NCI/ADR-RES, 68.5 µM (inactive); in the experiment on SN12C, 34.1 µM (inactive); with OVCAR-4, 29.6 µM (inactive); in the experiment on HL-60, 25.2 µM (inactive); with SK-MEL-5, 23.7 µM (inactive). Besides, the GI50 in the experiment with Malme-3M is 27.7 µM (inactive); in the experiment on M14, 37.2 µM (inactive); with KM12 it was 24.9 µM (inactive); in the experiment with UO-31 it was 27.2 µM (inactive); in the experiment on HT-29, 32.6 µM (inactive); in the experiment with K562 it was 37.3 µM (inactive). Besides, the GI50 in the experiment with SW-620 is 42.3 µM (inactive); in the experiment on RXF 393, 8.28 µM (inactive); in the experiment on CCRF-CEM, 24.3 µM (inactive); in the experiment on NCI-H23 it was 22.1 µM (inactive); in the experiment on MOLT-4 it was 15.9 µM (inactive); with A498, 34.7 µM (inactive).
With `COc1cc2c(cc1OC)CCN=C2`, the GI50 in the experiment with SR, in the experiment with NCI/ADR-RES, with SN12C, in the experiment on OVCAR-4, in the experiment on HOP-62 and in the experiment with HL-60 was > 100 µM (inactive) in each case. Besides, the GI50 in the experiment with SK-MEL-5, with Malme-3M, in the experiment on M14, in the experiment on KM12, in the experiment with UO-31 and with HCC 2998 was > 100 µM (inactive) throughout. Also, the GI50 in the experiment with HT-29 is > 100 µM (inactive); in the experiment with SW-620, > 100 µM (inactive); in the experiment on RXF 393, 56.6 µM (inactive); in the experiment with CCRF-CEM it was > 100 µM (inactive); with NCI-H23, > 100 µM (inactive); with MOLT-4, > 100 µM (inactive). Also, the GI50 with A498 is > 100 µM (inactive).
For the molecule `CSc1nc(Cl)c2c(n1)Sc1ncnn1C2O` (centres undefined), the GI50 in the experiment on SR was 2.86 µM (inactive); in the experiment on NCI/ADR-RES, 25.9 µM (inactive); in the experiment on SN12C, 11 µM (inactive); in the experiment with OVCAR-4, 15 µM (inactive); with HOP-62, 21.8 µM (inactive); in the experiment with HL-60, 0.0547 µM (active). Moreover, the GI50 is 3.18 µM (inactive) with Malme-3M; 14.3 µM (inactive) in the experiment with M14; 2.55 µM (inactive) in the experiment on UO-31; 13.6 µM (inactive) in the experiment on HCC 2998; 12.9 µM (inactive) in the experiment on HT-29; 3.62 µM (inactive) in the experiment with K562. Besides, the GI50 in the experiment on SW-620 was 2.88 µM (inactive); in the experiment with RXF 393, 2.58 µM (inactive); with CCRF-CEM it was 1.56 µM (inactive); in the experiment with NCI-H23 it was 14.2 µM (inactive); with MOLT-4, 6.7 µM (inactive); with A498 it was 20 µM (inactive).
`C[n+]1c(-c2ccc(/C=N/Nc3n[nH]c(=S)n3N/N=C/c3ccc(-c4cn5ccccc5[n+]4C)cc3)cc2)cn2ccccc21`: the GI50 in the experiment on SR, in the experiment with NCI/ADR-RES, in the experiment on SN12C, in the experiment with OVCAR-4, with HOP-62 and in the experiment on HL-60 was > 100 µM (inactive) in each case. Also, the GI50 in the experiment on SK-MEL-5, in the experiment on M14, in the experiment with KM12, with UO-31, with HCC 2998 and in the experiment with HT-29 was > 100 µM (inactive) throughout. For the same molecule, the GI50 in the experiment on K562, in the experiment on SW-620, in the experiment with CCRF-CEM and with MOLT-4 was > 100 µM (inactive) throughout.
